Assay [1] relates to human peripheral blood monocytes. The assay can be described thus: LID transfection of monocytes, EGFP by FACS and cell death. The settings on record: FIG. 7a. In kind it is cell-based. As to the method:
(§1) Lipopolyplex (LID) transfection complexes comprising lipid (L), peptide (in the form of a peptide derivative as described above) (I) and DNA (D) were prepared. The lipid component was Lipofectin or Lipofectamine 2000 (Invitrogen Ltd, Paisley, UK), the peptide component was a synthesized peptide A to F, 6 or 6J derivative, as described in Table 7 above, and the DNA was the plasmid pEGFP-N1 (Clontech, BD Biosciences, Palo Alto, Calif.)
(§2) component (Lipofectin or Lipofectamine 2000) was maintained at a constant proportion, by weight, relative to DNA of 0.75:1. Prior to making transfection complexes, in method A the lipid component was diluted to a concentration of 15 μg per ml, the peptide was prepared at 0.1 mg/ml and the DNA (plasmid pEGFP-N1, BD Biosciences, Cowley, UK, prepared using EndoFree plasmid kit, Qiagen Ltd, Crawley, UK) was at 10 μg per ml. All dilutions were performed with OptiMEM reduced serum tissue culture medium (Life Technologies Ltd, Paisley, UK). In method B prior to making transfection complexes the lipid component was diluted to a concentration of 30 μg per ml, the peptide was prepared at 0.1 mg/ml and the DNA (plasmid pEGFP-N1, BD Biosciences, Cowley, UK, prepared using EndoFree plasmid kit, Qiagen Ltd, Crawley, UK) was at […]. All dilutions were performed in serum-free RPMI.
(§3) Transfection complexes were made by mixing the components in the order 1) lipid (50 μl) then 2) peptide (70 μl) and finally 3) DNA (50 μl), then diluting with OptiMEM or serum free RPMI, as appropriate, to a concentration relative to the DNA component of 2 μg DNA per […] (OptiMEM) or 500 μl (RPMI).
(§4) For transfection of monocytes, peripheral blood monocytes were prepared using Lymphoprep centrifugation and CD14 bead selection as described in the method for preparation of monocyte derived dendritic cells in Example 1(v) above. These cells were then transfected as described as described for dendritic cells except that transfection of the monocytes (and also of day 3 or day 4 immature dendritic cells) was carried out in solution.

Assay [2] deals with human monocyte-derived immature dendritic cells. Description: LID (lipid-peptide-DNA) transfection of immature dendritic cells, EGFP by FACS and 7AAD cell death. In kind it is cell-based. The settings on record: day 4 cells, lipofectin, lipid:DNA 0.75:1, peptide:DNA 7:1 (FIG. 5a). The method, then: as §1
In the transfection complex, peptide component to DNA charge ratios (+/−) were used at 1.5:1, 3:1 and 7:1. The lipid
as §2, §3
Immature day 6 dendritic cells, obtained as described in Example 1(v) above, were plated into a 48 well plate at 5×10^4 cells per well in complete media and allowed to settle for 3 hours at 37° C. 300 μl or 500 μl (as appropriate) of the transfection complex obtained as described above was added to each well. The transfection complex was applied to cells within 5 minutes of preparation. Transfection incubations were performed at 37° C. for 4 hours, after which the medium was replaced with complete medium with cytokines for 24 hours. Cells were harvested by scraping, spun down and resuspended in 300 μl PBS for FACS analysis to determine the percentage of cells positive for the reporter gene EGFP (Enhanced Green Fluorescent Protein). Each transfection was performed in triplicate wells.
as §4

For assay [3] the test system is unchanged. Description: Titration of phage clone binding to human dendritic cells. As to the method:
Phage were recovered and titred from each round of selection as follows. 2×10^11 Blocked phage were added to 5×10^4 blocked monocyte-derived immature dendritic cells for 1 hour on ice before washing cells three times with 0.05% Tween20-PBS, eluting phage with TBS pH5.5, and lysing cells to harvest the phage remaining bound. The numbers of phage harvested by cell lysis were calculated as plaque forming units (pfu). […] Sequencing of the bound phage shown in FIG. 1 identified the peptides as APSNSTA [SEQ. ID. NO.:15], QLLTGAS [SEQ. ID. NO.:30], TARDYRL [SEQ. ID. NO.:31], FQSQYQK [SEQ. ID. NO.:26], PLMPSLS [SEQ. ID. NO.:24], FPRAPHH [SEQ. ID. NO.:32], MASISMK [SEQ. ID. NO.:27], DWWHTSA [SEQ. ID. NO.:28], SHVKLNS [SEQ. ID. NO.:29], and SPALKTV [SEQ. ID. NO.:16].
(§5) The dendritic cells were spun down at 2000 rpm, for 5 min at 4° C., and resuspended in the phage solution, allowing the phage to bind for 1 hour on ice with occasional mixing. The cells were then washed in PBS-Tween 20 (0.05%) three times before eluting phage with 166 μl TBS pH5.5. for 10 min on ice. The eluate was neutralised with […] Tris-HCl pH 8, the cells were spun down, and the supernatant removed to be stored as eluate. The cell pellet was resuspended in 200 μl of cell lysis buffer (30 mM Tris-HCl, 1 mM EDTA pH 8.0) for 1 hour on ice, with shaking. The cell debris was removed by spinning at 5000 rpm for 5 min and the supernatant recovered. The phage in the eluate and the cell lysate were titred by measuring plaque forming units (pfu) in E. coli ER2738 as described in the NEB C7C technical bulletin.
(§6) The titration of phage clone binding was carried out using human and mouse dendritic cells, with binding to plastic as a control. The human cells were obtained from donors as stated below.

The next assay has as its system mouse dendritic cells. The assay can be described thus: Titration of phage clone binding to mouse dendritic cells. The settings on record: 2×10^11 phage. The method, then:
as §5, §6

A short description of assay [4]: Titration of phage clone binding to blocked plastic (control). As to the method:
as §5, §6

Assay [5] has as its system human monocyte-derived immature dendritic cells. The assay can be described thus: Whole cell flow cytometry (FACS) of phage clone binding. The settings on record: day 4 cells, several donors; versus phage clone with no insert. The method, then:
5×10^4 Dendritic cells and 2×10^11 of an individual purified phage clone were each blocked at 4° C. for 30 mins in 1 ml MBSA (2% Marvel, 5% BSA in PBS), with mixing on a turntable. The dendritic cells were spun down at 2000 rpm, a gentle centrifugation to pellet cells without lysing them, for 5 min at 4° C., and the pellet resuspended in the blocked phage solution. The mixture was held on ice for 30 min to allow the phage to bind, before spinning down the cells, removing the supernatant and washing the cells with 1 ml 1% BSA, 0.05% Tween20-PBS. The cells were spun again, the supernatant removed, and the cells fixed in 1 ml 1% paraformaldehyde for 30 min on ice. […] The cells were incubated with the antibody on ice for 30 min before spinning down, washing twice in 0.05% Tween20, 1% BSA PBS, resuspending in […] and measuring the percentage cells positive for FITC by FACS analysis.
Alternatively, 5×10^4 dendritic cells were mixed with 2×10^11 of individual phage clones as described for panning of the phage library. The mixture of phage and DC suspensions was kept on ice for 30 min before cells were centrifuged to remove the supernatant and washed with 1 ml 1% BSA, 0.05% Tween 20-PBS. The cells were again pelleted by centrifugation, then fixed for flow cytometry analysis by resuspending in 1 ml of 1% paraformaldehyde for 30 min on ice. […] The cells were incubated with the antibody on ice for 30 min then pelleted by centrifugation, washed twice in 0.05% Tween 20, 1% BSA PBS and resuspended in 200 μl PBS. The percentage of FITC-positive cells was determined by flow cytometry using a Epics XL flow cytometer (Beckman Coulter, High Wycombe, UK.).
(Flow cytometry measures light scatter and fluorescence of single cells or particles in a stream.)

As for “FPRAPHH (Synthetic peptide binding to dendritic cells)”, the “Percentages of cells transfected (ranking)” value in assay [1] is “highest percentages of cells transfected”. Also, the “Transfection efficiency, % positive cells” value in assay [2] was determined as 11%. For the same substance, the “Phage harvested by cell lysis (pfu), human donor S” value in assay [3] (2×10^11 phage on 5×10^4 cells, 1 hour on ice, donor S) came to 19400 pfu ×10^3. For the same substance, in assay [3] (2×10^11 phage on 5×10^4 cells, 1 hour on ice, donor one), the “Phage harvested by cell lysis (pfu), human donor one” value was determined as 15920 pfu ×10^3. Further, in assay [3] (2×10^11 phage on 5×10^4 cells, 1 hour on ice, donor two), the “Phage harvested by cell lysis (pfu), human donor two” value came to 3200 pfu ×10^3. In addition, the “Extent of phage clone binding in titrations” value in assay [3] (all titrations, including mouse dendritic cells, versus phage with no insert) is “bound in highest numbers in all titrations”. Moreover, the “Phage titre (pfu), mouse DCs” value in the assay with mouse dendritic cells was 13980 pfu ×10^3. Besides, in assay [4], the “Phage titre (pfu), plastic” value stood at 1860 pfu ×10^3. Moreover, the “Percentage of cells positive for bound phage (FITC) by FACS” value in assay [5] is listed as “a higher percentage of cells positive for bound phage than the controls with no insert”.

(Values after patent publication US7820624B2, “Peptide ligands” (ICH Productions Limited, priority 2003, dated 2010).)
